Source: paper PMC11474028, “Lipopeptide antibiotics disrupt interactions of undecaprenyl phosphate with UptA” (Proceedings of the National Academy of Sciences of the …, 2024)
“Also recorded” adds a separate entry of the source.

Legend:
[1] = ref 46 (ref 23, 46, 60, 61); cited from earlier work
Text: To this end, we prepared UptA:C55-P mixtures and then equilibrated aliquots with bacitracin and vancomycin. […] In line with the specificity of bacitracin for C55-PP rather than C55-P, this antibiotic modestly ...

[2] = tested on: UptA:C55-P complex; experiment: Native MS of UptA:C55-P complex in the presence of antibiotics; type: binding, Bacillus subtilis; details: 2.5 µM UptA, 10 µM C55-P; for effect of antibiotic on UptA:C55-P complex (in words): 0 to 100 µM antibiotic, 75 V, mean of three independent replicates
Experimental: (§1) Amphomycin and derivatives are known to kill bacteria by forming complexes with free C55-P ([46]), however, whether or not this involves a direct interaction with a protein cellular target is not known. We therefore investigated how amphomycin affects the UptA:C55-P complex. We recorded spectra for solutions containing 2.5 µM UptA, 10 µM C55-P and then equilibrated aliquots with increasing concentrations of amphomycin.
(A) Mass spectra (6+ charge state) for solutions containing 2.5 µM UptA and 10 µM C55-P incubated with 0 to 100 µM amphomycin. (B) Relative intensity of C55-P bound to UptA in the presence of amphomycin and daptomycin. The bar represents the mean of three independent replicates shown as data points and error bars are SD. […] (C) Fraction of C55-P bound to UptA in the presence of cell wall targeting antibiotics. Each sample contains 2.5 µM UptA, 10 µM C55-P and 100 µM of indicated antibiotic, and spectra were acquired using the same instrument settings and collisional activation of 75 V. The bar represents the mean of three independent replicates shown as data points, and the error bar represents SD. […]
(§2) Detailed experimental procedures are provided in SI Appendix. Briefly, UptA (wild type and mutants) was expressed in E. coli C43(DE3) cells (Lucigen) with GFP fusion on the C-terminus and solubilized from the membrane fraction by n-dodecyl-β-D-maltopyranoside (DDM). After purification by affinity chromatography, the GFP was cleaved by TEV protease and removed, and UptA was further purified by size-exclusion chromatography in a buffer containing 20 mM Tris-HCl (pH 8.0), 200 mM NaCl, 0.02% DDM. Before measurements, proteins were buffer-exchanged into 0.05% LDAO, 200 mM ammonium acetate at the desired pH using a centrifugal buffer exchange device (Micro Bio-Spin 6, Bio-Rad). Stock solutions of lipids were prepared from chloroform/methanol solution by evaporating aliquots of known volume in a SpeedVac. After drying, the lipid films were weighed and resuspended to a final concentration of 0.5 mM in 200 mM ammonium acetate and 0.05% LDAO by vertexing. Stock solutions of 0.5 mM amphomycin, aspartocin D, daptomycin, polymyxin B, polymyxin E, and bacitracin were made in the same buffer. All experiments were repeated three times from newly prepared stock solutions. Native mass spectrometry was performed on a Q-Exactive hybrid quadrupole-Orbitrap mass spectrometer (Thermo Fisher Scientific, Bremen, Germany), and lipid identification was performed on an Orbitrap Eclipse Tribrid mass spectrometer (Thermo). […]

[3] = tested on: B. subtilis strains bearing R112 and R118 mutations on UptA; details: cited from earlier work
Text: Conserved arginine residues in the putative membrane reentrant loops of E. coli DedA proteins YqjA (R130) and YghB (R136) are important for the cellular role of these proteins ([36]). […] How these residues impact substrate interactions, however, is not known. […] Despite the combined cellular pool of C55-PP and C55-P being limited to ~1.5 × 10^5 molecules per cell ([56]), they mediate the transport of glycan-bearing components of the cell wall peptidoglycan, teichoic acid, and capsular polysaccharid ...

[4] = target: UptA (Bacillus subtilis, UniProt O31823); experiment: Native MS of antibiotic binding to UptA; details: 2.5 µM UptA, 10 µM C55-P, antibiotic up to 100 µM (polymyxins 100 µM), 0.05% LDAO, 200 mM ammonium acetate, 75 V
Experimental: We next investigate how UptA and its complex with C55-P interact with a range of cell-wall targeting antibiotics including the lipopeptides daptomycin and amphomycin. […] We investigated whether daptomycin affects C55-P binding to UptA by recording spectra for solutions containing 2.5 µM UptA, 10 µM C55-P, and different concentrations of daptomycin.
as §1
The amphiphilic nature of daptomycin and amphomycin raises the possibility that these lipopeptide antibiotics may promiscuously bind to UptA in a nonspecific manner. We probe this possibility by recording spectra for UptA:C55-P solutions in the presence of 100 µM polymyxin B and 100 µM polymyxin E. These polymyxins are membrane-disrupting lipopeptides that target the outer membrane lipopolysaccharides in Gram-negative bacteria ([47]) but without a known affinity for C55-P or UptA.
To this end, we prepared UptA:C55-P mixtures and then equilibrated aliquots with bacitracin and vancomycin.
as §2

UptA, sequence (O31823 whole entry): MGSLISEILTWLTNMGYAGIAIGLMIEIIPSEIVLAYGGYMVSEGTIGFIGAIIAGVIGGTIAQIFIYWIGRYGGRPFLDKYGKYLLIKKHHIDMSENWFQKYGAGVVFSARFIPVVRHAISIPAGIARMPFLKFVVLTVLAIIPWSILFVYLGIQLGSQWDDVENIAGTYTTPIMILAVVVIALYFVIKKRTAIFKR

## amphomycin
[1]
  complex formation with free C55-P (in words): known propensity to form complexes with free C55-P molecules
[2]
  effect of antibiotic on UptA:C55-P complex (in words): peak intensities of the UptA:C55-P complex reduce with respect to an increase in the concentration of amphomycin; also recorded: induce dissociation of UptA:C55-P complexes; also recorded: bind directly to UptA and induce dissociation of the UptA:C55-P complex; also recorded: can directly inhibit UptA function by out-competing the substrate for the protein binding
[2]; listed as Amphomycin
  effect of antibiotic on UptA:C55-P complex (in words): destabilizes the UptA:C55-P complex and sequesters C55-P
[2]; 10-fold molar excess of amphomycin
  UptA:C55-P complex remaining at 10-fold molar excess of antibiotic (in words): little-to-no UptA:C55-P complexes remained
[3]
  susceptibility of B. subtilis cells with UptA R112 and R118 mutations (in words): more susceptible to inhibition by amphomycin
[4]
  binding of antibiotic to UptA (in words): peaks consistent with amphomycin binding to UptA; also recorded: bind to UptA with higher affinity than other cell-wall targeting antimicrobial peptides such as bacitracin and vancomycin
